The values below come from patent publication US8637525B2, “Compounds for the reduction of beta-amyloid production” (Bristol-Myers Squibb Company, priority 2009, dated 2014).

The structures appear in SMILES notation. pIC50: −log10 of the molar value. Where a name gives a salt, the structure may show the parent alone.

For one test, the system named is Aβ1-42 production. Description: Cellular assay for inhibition of Aβ1-42 production (H4 APP751 SWE clone 8.20). The settings on record: 19 h, H4 APP751 SWE clone 8.20 cells, 19 h incubation; class symbols; read-out: Activity Rating (Aβ42 cellular IC50). The class given is cell-based. In outline:
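H4 cells stably expressing Swedish-mutant APP751 incubated with compound 19 h at 37 °C, 5% CO2. Secreted Aβ42 detected by HTRF with Aβ42 neoepitope antibody 565 (0.8 ng/well) and N-terminal 26D6 (75 ng/well), overnight at 4 °C. IC50 obtained by curve fitting.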
As to `CCNc1nc(Nc2ccc(-n3cnc(Cl)c3)c(OC)c2)nc2c1COCC2c1cc(F)cc(F)c1` (racemic) [Example 112, N2-(4-(4-chloro-1H-imidazol-1-yl)-3-methoxyphenyl)-8-(3,5-difluorophenyl)-N4-ethyl-7,8-dihydro-5H-pyrano[4,3-d]pyrimidine-2,4-diamine, TFA], the pIC50 was 8.00 to 8.82.

On to `CNc1nc(Nc2ccc(-n3cnc(C)c3)c(OC)c2)nc2c1COCC2c1ccc(Cl)cc1` (stereo not drawn) [Example 70, 8-(4-chlorophenyl)-N^2-(3-methoxy-4-(4-methyl-1H-imidazol-1-yl)phenyl)-N^4-methyl-7,8-dihydro-5H-pyrano[4,3-d]pyrimidine-2,4-diamine], for which the pIC50 is 8.00 to 8.82. With `CNc1nc(Nc2ccc(-n3cnc(Cl)c3)c(OC)c2)nc2c1CCC2c1cc(F)cc(F)c1` (racemic) [Example 102, N^2-(4-(4-Chloro-1H-imidazol-1-yl)-3-methoxyphenyl)-7-(3,5-difluorophenyl)-N^4-methyl-6,7-dihydro-5H-cyclopenta[d]pyrimidine-2,4-diamine], the pIC50 is 8.00 to 8.82. The same measure, in the same setting: for `COc1cc(Nc2nc3c(c(N(C)C)n2)CN(S(C)(=O)=O)CC3c2ccccc2)ccc1-n1cnc(Cl)c1` (stereo not drawn) [Example 147, N2-(4-(4-chloro-1H-imidazol-1-yl)-3-methoxyphenyl)-N4,N4-dimethyl-6-(methylsulfonyl)-8-phenyl-5,6,7,8-tetrahydropyrido[4,3-d]pyrimidine-2,4-diamine] the value was 7.00 to 8.00; for `CCNc1nc(Nc2ccc(-n3ncnc3C)c(F)c2)nc2c1CN(S(C)(=O)=O)CC2c1ccc(F)cc1` (stereo not drawn) [Example 157, N4-ethyl-N2-(3-fluoro-4-(5-methyl-1H-1,2,4-triazol-1-yl)phenyl)-6-(methylsulfonyl)-8-(4-fluorophenyl)-5,6,7,8-tetrahydropyrido[4,3-d]pyrimidine-2,4-diamine], 7.00 to 8.00; for `CNc1nc(Nc2ccc(-n3cnc(Cl)c3)c(OC)c2)nc2c1COCC2c1ccc(F)cc1` (stereo not drawn) [Example 60B, N2-(4-(4-chloro-1H-imidazol-1-yl)-3-methoxyphenyl)-8-(4-fluorophenyl)-N4-methyl-7,8-dihydro-5H-pyrano[4,3-d]pyrimidine-2,4-diamine], 7.00 to 8.00. Still for that read-out and setting: for `CNc1nc(Nc2ccc(-n3cnc(Cl)c3)c(OC)c2)nc2c1CCC2c1cc(F)c(F)c(F)c1` (racemic) [Example 103, N^2-(4-(4-chloro-1H-imidazol-1-yl)-3-methoxyphenyl)-N^4-methyl-7-(3,4,5-trifluorophenyl)-6,7-dihydro-5H-cyclopenta[d]pyrimidine-2,4-diamine] the value was 8.00 to 8.82; for `CNc1nc(Nc2ccc(-n3cnc(Cl)c3)c(OC)c2)nc2c1CN(S(=O)(=O)C1CC1)CC2c1ccccc1` (stereo not drawn) [Example 130, N2-(4-(4-chloro-1H-imidazol-1-yl)-3-methoxyphenyl)-6-(cyclopropylsulfonyl)-N4-methyl-8-phenyl-5,6,7,8-tetrahydropyrido[4,3-d]pyrimidine-2,4-diamine], 8.00 to 8.82; for `CCNc1nc(Nc2ccc(-n3cnc(C)n3)c(F)c2)nc2c1CN(CC(F)(F)F)CC2c1ccccc1` (stereo not drawn) [Example 145, N4-ethyl-N2-(3-fluoro-4-(3-methyl-1H-1,2,4-triazol-1-yl)phenyl)-8-phenyl-6-(2,2,2-trifluoroethyl)-5,6,7,8-tetrahydropyrido[4,3-d]pyrimidine-2,4-diamine], 7.00 to 8.00.

Turning to `CCN(C)c1nc(Nc2ccc(-n3cnc(Cl)c3)c(OC)c2)nc2c1CNCC2c1ccc(F)cc1` (stereo not drawn) [Example 161, N2-(4-(4-chloro-1H-imidazol-1-yl)-3-methoxyphenyl)-N4-ethyl-8-(4-fluorophenyl)-N4-methyl-5,6,7,8-tetrahydropyrido[4,3-d]pyrimidine-2,4-diamine], the pIC50 is 6.00 to 7.00.

As to `CCNc1nc(Nc2ccc(-n3cnc(Cl)c3)c(OC)c2)nc2c1CCC2c1ccc(OC(F)(F)F)cc1` (racemic) [Example 98, N^2-(4-(4-Chloro-1H-imidazol-1-yl)-3-methoxyphenyl)-N^4-ethyl-7-(4-(trifluoromethoxy)phenyl)-6,7-dihydro-5H-cyclopenta[d]pyrimidine-2,4-diamine], the pIC50 was 7.00 to 8.00. On the same count and under the same terms, for `COc1cc(Nc2nc3c(c(N4CC[C@@H](F)C4)n2)CCC3c2ccc(F)cc2)ccc1-n1cnc(Cl)c1` (stereo partly drawn) [Example 38, N-(4-(4-chloro-1H-imidazol-1-yl)-3-methoxyphenyl)-7-(4-fluorophenyl)-4-((R)-3-fluoropyrrolidin-1-yl)-6,7-dihydro-5H-cyclopenta[d]pyrimidin-2-amine] the value was 7.00 to 8.00. The same measure, in the same setting: next, `CNc1nc(Nc2ccc(-n3cnc(C(F)F)c3)c(OC)c2)nc2c1CCC2c1ccc(F)cc1` (stereo not drawn) [Example 208, N2-(4-(4-(difluoromethyl)-1H-imidazol-1-yl)-3-methoxyphenyl)-7-(4-fluorophenyl)-N4-methyl-6,7-dihydro-5H-cyclopenta[d]pyrimidine-2,4-diamine]: 7.00 to 8.00.

Still in this test, the particulars now being: 19 h, H4 APP751 SWE clone 8.20 cells, 19 h incubation; read-out: Activity Rating (Aβ42 cellular IC50), numeric value.
For `COc1cc(Nc2nc3c(c(N4C[C@@H]5C[C@H]4CO5)n2)CCC3c2ccc(F)cc2)ccc1-n1cnc(Cl)c1` (single isomer, unassigned) [Example 18A], the pIC50 was 8.06. Take `COc1cc(Nc2nc(NC3CCC3)c3c(n2)C(c2ccccc2)CC3)ccc1-n1cnc(Cl)c1` (stereo not drawn) [Example 9, N2-(4-(4-chloro-1H-imidazol-1-yl)-3-methoxyphenyl)-N4-cyclobutyl-7-phenyl-6,7-dihydro-5H-cyclopenta[d]pyrimidine-2,4-diamine]: the pIC50 was 8.09.

`COc1cc(Nc2nc3c(c(N4CC(F)(F)C4)n2)CCC3c2ccc(OC(F)(F)F)cc2)ccc1-n1cnc(Cl)c1` (single isomer, unassigned) [Example 99B, N-(4-(4-chloro-1H-imidazol-1-yl)-3-methoxyphenyl)-4-(3,3-difluoroazetidin-1-yl)-7-(4-(trifluoromethoxy)phenyl)-6,7-dihydro-5H-cyclopenta[d]pyrimidin-2-amine]: the pIC50 was 6.72.

With `CC[C@H](COC)Nc1nc(Nc2ccc(-n3cnc(Cl)c3)c(OC)c2)nc2c1CCC2c1ccc(F)cc1` (single isomer, unassigned) [Example 48B], the pIC50 is 6.89. On the same count and under the same terms, next, `COc1cc(Nc2nc3c(c(N4CC(F)(F)C4)n2)CCC3c2cc(F)c(F)c(F)c2)ccc1-n1cnc(Cl)c1` (stereo not drawn) [Example 108, N-(4-(4-Chloro-1H-imidazol-1-yl)-3-methoxyphenyl)-4-(3,3-difluoroazetidin-1-yl)-7-(3,4,5-trifluorophenyl)-6,7-dihydro-5H-cyclopenta[d]pyrimidin-2-amine]: 7.70.

Still in this test, the particulars now being: H4 APP751 SWE clone 8.20 cells, 19 h incubation; class symbols; read-out: Activity Rating (Aβ42 cellular IC50).
For `COc1cc(Nc2nc3c(c(N4CCC(F)C4)n2)CCOC3c2ccc(F)cc2)ccc1-n1cnc(Cl)c1` (stereo in doubt) [Example 91B, N-(4-(4-chloro-1H-imidazol-1-yl)-3-methoxyphenyl)-8-(4-fluorophenyl)-4-((S)-3-fluoropyrrolidin-1-yl)-6,8-dihydro-5H-pyrano[3,4-d]pyrimidin-2-amine], the pIC50 was 6.00 to 7.00. Still for that read-out and setting: for `COc1cc(Nc2nc(N[C@H](C)C3CC3)c3c(n2)C(c2ccc(C(F)(F)F)cc2)COC3)ccc1-n1cnc(Cl)c1` (stereo partly drawn) [Example 117B, N2-(4-(4-chloro-1H-imidazol-1-yl)-3-methoxyphenyl)-N4-((R)-1-cyclopropylethyl)-8-(4-(trifluoromethyl)phenyl)-7,8-dihydro-5H-pyrano[4,3-d]pyrimidine-2,4-diamine] the value was 6.00 to 7.00.

Turning to `COc1cc(Nc2nc3c(c(N4CC(F)C4)n2)CCC3c2ccccc2)ccc1-n1cnc(Cl)c1` (stereo not drawn) [Example 182B, N-(4-(4-chloro-1H-imidazol-1-yl)-3-methoxyphenyl)-4-(3-fluoroazetidin-1-yl)-7-phenyl-6,7-dihydro-5H-cyclopenta[d]pyrimidin-2-amine], the pIC50 is 7.00 to 8.00. The same measure, in the same setting: next, `CNc1nc(Nc2ccc(-n3cnc(Cl)c3)c(OC)c2)nc2c1CCC2c1ccc(OC(F)(F)F)cc1` (single isomer, unassigned) [Example 97B, N^2-(4-(4-chloro-1H-imidazol-1-yl)-3-methoxyphenyl)-N^4-methyl-7-(4-(trifluoromethoxy)phenyl)-6,7-dihydro-5H-cyclopenta[d]pyrimidine-2,4-diamine]: 7.00 to 8.00; `COc1cc(Nc2nc3c(c(N4CC[C@@H](F)C4)n2)COC3c2ccc(F)cc2)ccc1-n1cnc(Cl)c1` (single isomer, unassigned) [Example 83B]: 7.00 to 8.00. Same read-out and setting: next, `COc1cc(Nc2nc3c(c(N4CC(F)(F)C4)n2)COCC3c2ccc(Cl)cc2)ccc1-n1cnc(Cl)c1` (single isomer, unassigned) [Example 66B, N-(4-(4-chloro-1H-imidazol-1-yl)-3-methoxyphenyl)-8-(4-chlorophenyl)-4-(3,3-difluoroazetidin-1-yl)-7,8-dihydro-5H-pyrano[4,3-d]pyrimidin-2-amine]: 8.00 to 8.82. Still for that read-out and setting: for `COCC(Nc1nc(Nc2ccc(-n3cnc(Cl)c3)c(OC)c2)nc2c1CCC2c1ccc(F)cc1)C1CC1` (single isomer, unassigned) [Example 45D, N2-(4-(4-chloro-1H-imidazol-1-yl)-3-methoxyphenyl)-N4-(1-cyclopropyl-2-methoxyethyl)-7-(4-fluorophenyl)-6,7-dihydro-5H-cyclopenta[d]pyrimidine-2,4-diamine] the value was 8.00 to 8.82; for `CNc1nc(Nc2ccc(-n3cnc(C)n3)c(F)c2)nc2c1CN(S(=O)(=O)C1CC1)CC2c1ccccc1` (stereo not drawn) [Example 141, 6-(cyclopropylsulfonyl)-N2-(3-fluoro-4-(3-methyl-1H-1,2,4-triazol-1-yl)phenyl)-N4-methyl-8-phenyl-5,6,7,8-tetrahydropyrido[4,3-d]pyrimidine-2,4-diamine], 7.00 to 8.00; for `COc1cc(Nc2nc3c(c(N4CC(F)C4)n2)CCC3c2ccccc2)ccc1-n1cnc(Cl)c1` (stereo not drawn) [Example 182A, N-(4-(4-chloro-1H-imidazol-1-yl)-3-methoxyphenyl)-4-(3-fluoroazetidin-1-yl)-7-phenyl-6,7-dihydro-5H-cyclopenta[d]pyrimidin-2-amine], 8.00 to 8.82.
